Laboratory results reported in patent US7741348B2, “Bisheterocycle tandem compounds useful as antiviral agents, the uses thereof and the compositions comprising such compounds” (Shanghai Institute of Materia Medica, Chinese Academy of …, priority 2005, dated 2010).
Values after ≈ are worked out from the molar mass of the structure shown.

What was measured:
[1] = system: MDCK (canine kidney) cells; experiment: 50% toxicity concentration in the anti-influenza screen (MDCK cells); format: cell-based; details: 50% toxity concentration, Table 3-2 (influenza screen, MDCK cells)
From the text: (§1) 4. Screening of the samples for the anti-influenza virus A and B activity: MDCK (canine kidney) cells were used as the virus host to test the inhibition effect of the compounds of the present invention on the cytopathic effect (CPE) of the cells caused by the virus.

[2] = system: influenza A virus; experiment: Anti influenza A virus activity, cytopathic effect (CPE) in MDCK cells; format: cell-based
From the text: as §1

[3] = Cytotoxicity to HepG2.2.15 cells (MTT method); format: cell-based; details: human, HepG2.2.15 cells (HBV-transgenic human hepatoma cells), 50% death concentration, eighth day
From the text: (§2) Hepatitis B virus (HBV) transgenic human hepatoma carcinoma cell, HepG2.2.15 cell line, can secrete hepatitis B virus particles (containing antigen and DNA) into supernatant when being cultured.
(§3) Under action of antiviral drugs, the contents of HBsAg, HBeAg and viral DNA secreted from cells into the supernatant were detected and are compared with the contents of control groups without drugs, so that the antiviral activity of the compounds of the present invention can be measured as well as the cytotoxic effect of compounds of the present invention. The value concentration of the compounds of the present invention which caused 50% of cells dead and was measured with MTT method was CC50; and the value concentration of the compounds of the present invention which inhibited the secretion of HBsAg and HBeAg detected by ELISA method and inhibited 50% of viral DNA replication detected by fluorescent quantification PCR method was IC50.
(§4) HepG2.2.15 cells were inoculated on a 96-well plate, and the compounds of the present invention were added next day. The medium and the compound solutions of the same concentration were renewed periodically. The culture supernatants were collected on the eighth day to be detected. MTT was added to the cells on the 96-well plate, and MTT dissolving liquid was added after 4 hours to be reacted overnight. OD570 was measured next day on microplate reader. And the cytotoxicity of the compounds of the present invention to the HepG2.2.15 cells, the effect of the compounds of the present invention on the growth of the cells, and the concentration of the compound of the present invention (CC50) causing 50% of the cells dead were estimated according to the OD values.

[4] = system: hepatitis B virus (HBV); experiment: HBsAg secretion in HepG2.2.15 culture supernatant (ELISA); format: cell-based; details: HepG2.2.15 supernatant, eighth day, read-out: HBsAg secreation IC50
From the text: as §2, §3, §4
(§5) HBsAg and HBeAg were detected with assaying kits (purchased from Sino-American biotechnological company). Samples were added to the coated strip plate, and the same amount of enzyme labeled conjugate was added, after reacting under 37° C. for 1 hour, the plate was washed 5 times. Colorant solutions A and B were added, and the reaction was stopped after 15 minutes, and OD450/630 was measured. The half inhibition rate IC50 of the sample for the HBV antigen was calculated according to the OD values.

[5] = system: hepatitis B virus (HBV); experiment: HBeAg secretion in HepG2.2.15 culture supernatant (ELISA); format: cell-based; details: HepG2.2.15 supernatant, eighth day, read-out: HBeAg secreation IC50
From the text: as §2, §3, §4, §5

[6] = system: hepatitis B virus (HBV); experiment: HBV-DNA replication in HepG2.2.15 culture supernatant (fluorescent quantification PCR); format: cell-based; details: for IC50: HepG2.2.15 supernatant, eighth day, fluorescent quantification PCR, read-out: DNA replication IC50
From the text: as §2, §3, §4
A suitable amount of culture supernatant was added into a same volume of virus extract solution, and was boiled after mixed uniformly, then centrifuged at 10000 rpm for 5 min under room temperature. A suitable amount of supernatant was collected for PCR amplification. Five HBV-DNA standard samples were used to set a standard curve. According to the obtained viral DNA replication value, the inhibition rates of HBV-DNA replication of the compound of the present invention at different concentrations were calculated, and then the half inhibition rates of the compounds were calculated to obtain IC50. For the samples that can not be calculated for IC50 value, they can be represented by ICX and given the corresponding concentration values.

[7] = system: herpes virus II (HSV-II); experiment: Anti herpes virus II activity, cytopathic effect in Vero cells; format: cell-based; details: Human alphaherpesvirus 2; Vero cells, cytopathic effect; read-out: Anti herpes virus II HSV-II (IC50)
From the text: 3. Screening of the compounds for the anti-herpes virus I and II activity: Vero (African green monkey kidney) cells were used as virus host to test the inhibition effect of the compounds of the present invention on the cytopathic effect of the Vero cells caused by Herpes virus I and II.

[8] = system: Vero (African green monkey kidney) cells; experiment: 50% toxicity concentration in the anti-herpes virus screen (Vero cells); details: 50% toxity concentration, Table 3-1 (herpes virus screen, Vero cells)

COC(=O)c1nc(-c2csc([C@@H](NC(=O)c3ccccc3F)C(C)C)n2)oc1C [Wang417.46-J]
TC50 [1]: >1000 µg/mL
IC50 [2]: > 86.2 µg/mL
CC50 [3]: 755 µM
IC50 [4]: 143 µM

COC(=O)c1nc(-c2csc([C@@H](NC(=O)CCC=C(C)C)C(C)C)n2)oc1C [Yao405.51]
TC50 [1]: 577.35 µg/mL (≈ 1420 µM)
IC50 [2]: 37 µg/mL (≈ 91.3 µM)

COC(=O)c1nc(-c2csc([C@@H](NC(=O)CC3=CCCCC3)C(C)C)n2)oc1C [Wang 417.52]
TC50 [1]: 231.12 µg/mL (≈ 554 µM)
IC50 [2]: 68.7 µg/mL (≈ 165 µM)

C=CCC(=O)N[C@H](c1nc(-c2nc(C(=O)OC)c(C)o2)cs1)C(C)C [Wang 363.43-2]
TC50 [1]: 500 µg/mL (≈ 1380 µM)
IC50 [2]: 0.42 µg/mL (≈ 1.16 µM)

COC(=O)c1coc([C@H](C)NC(=O)c2nc(-c3csc([C@@H](NC(=O)CC=C(C)C)C(C)C)n3)oc2C)n1 [Wang529.61-2]
TC50 [1]: 577.35 µg/mL (≈ 1090 µM)
IC50 [2]: 111 µg/mL (≈ 210 µM)

CCC(=O)N[C@H](c1nc(-c2nc(C(=O)N[C@@H](C)c3nc(C(=O)OC)co3)c(C)o2)cs1)C(C)C [Wang489.55]
TC50 [1]: 577.35 µg/mL (≈ 1180 µM)
IC50 [2]: 160 µg/mL (≈ 327 µM)

COc1ccccc1C(=O)N[C@H](c1nc(-c2nc(C(=O)O)c(C)o2)cs1)C(C)C [Wang415.46]
TC50 [1]: 333.33 µg/mL (≈ 802 µM)
IC50 [2]: 29 µg/mL (≈ 69.8 µM)

Clc1nc(-c2nccs2)[nH]c1-c1ccccc1 [Wang261]
IC50 [5]: 37 µM
CC50 [3]: 123 µM
IC50 [4]: 92.4 µM

CCCCc1sc(-c2nccs2)nc1C(=O)OC [Wang282]
IC50 [5]: 57.3 µM
CC50 [3]: 397 µM
IC50 ([6]; Hepatitis B virus): 19.4 µM
IC50 [4]: 58.8 µM

COC(=O)c1nc(-c2nccs2)sc1Cc1ccccc1 [Wang316]
IC50 [5]: 70.5 µM
CC50 [3]: 174 µM
IC20 ([6]; Hepatitis B virus, HepG2.2.15): 31.3 µM
IC50 [4]: 33.7 µM

CC(C)Cc1sc(-c2nccs2)nc1C(=O)O [Wang268-1]
IC50 [5]: 101 µM
CC50 [3]: 437 µM
IC50 ([6]; Hepatitis B virus): 153 µM
IC50 [4]: 90 µM

COC(=O)c1coc([C@H](C)NC(=O)c2nc(-c3csc([C@@H](NC(=O)C4CC4)C(C)C)n3)oc2C)n1 [Wang 501.56-1]
TC50 [1]: 303.69 µg/mL (≈ 605 µM)
IC50 [2]: 1.18 µg/mL (≈ 2.35 µM)
IC50 [7]: 293 µg/mL (≈ 585 µM)
TC50 [8]: 707.11 µg/mL (≈ 1410 µM)

COC(=O)c1nc(-c2csc([C@@H](NC(=O)c3cccs3)C(C)C)n2)oc1C [Wang405.49]
IC50 [5]: 46 µM
CC50 [3]: 154 µM
IC50 ([6]; Hepatitis B virus): 76 µM
IC50 [4]: 63.5 µM

O=C(O)c1nc(-c2nccs2)sc1Cc1ccccc1 [Wang302]
IC50 [5]: 83.2 µM
IC50 ([6]; Hepatitis B virus): 63.1 µM

C=CCCC(=O)N[C@H](c1nc(-c2nc(C(=O)OC)c(C)o2)cs1)C(C)C [Wang 377.46-2]
TC50 [1]: 577.35 µg/mL (≈ 1530 µM)
IC50 [2]: 259 µg/mL (≈ 685 µM)

COC(=O)c1coc([C@H](C)NC(=O)c2nc(-c3csc([C@@H](NC(=O)Cc4ccccc4)C(C)C)n3)oc2C)n1 [Wang 551.62]
TC50 [1]: 303.69 µg/mL (≈ 551 µM)
IC50 [2]: 1.18 µg/mL (≈ 2.14 µM)

CCCc1[nH]c(-c2cccs2)nc1C(=O)OCC [Wang264]
IC50 [5]: 95.5 µM
CC50 [3]: 124 µM
IC50 [4]: 41.3 µM

COC(=O)c1nc(-c2csc([C@@H](NC(=O)C3CCC3)C(C)C)n2)oc1C [Wang 377.46-1]
TC50 [1]: 500 µg/mL (≈ 1320 µM)
IC50 [2]: 111 µg/mL (≈ 294 µM)

COC(=O)c1nc(-c2csc([C@@H](NC(=O)C(C)(C)C)C(C)C)n2)oc1C [Yao379.47]
TC50 [1]: 577.35 µg/mL (≈ 1520 µM)
IC50 [2]: 97.8 µg/mL (≈ 258 µM)

CCOC(=O)c1nc(-c2cccs2)[nH]c1CC(C)C [Wang278-1]
IC50 [5]: 19 µM
CC50 [3]: 90.3 µM
DNA replication IC88 ([6]; ICX: concentration with 88% inhibition of HBV-DNA replication, IC50 not calculable): IC88 = 1.37 uM
IC50 [4]: 34.1 µM

CCCCc1[nH]c(-c2cccs2)nc1C(=O)OCC [Wang278]
IC50 [5]: 24 µM
CC50 [3]: 153 µM
IC50 ([6]; Hepatitis B virus): 4.8 µM
IC50 [4]: 67.3 µM

COC(=O)c1nc(-c2nccs2)sc1CC(C)C [Wang282-1]
IC50 [5]: 21.7 µM
IC50 ([6]; Hepatitis B virus): 2.4 µM
IC50 [4]: 67.6 µM

COC(=O)c1nc(-c2csc([C@@H](NC(=O)c3ccccc3OC)C(C)C)n2)oc1C [Wang429.49]
TC50 [1]: 333.33 µg/mL (≈ 776 µM)
IC50 [2]: 47.7 µg/mL (≈ 111 µM)

CCOC(=O)c1nc(-c2nccs2)[nH]c1CC(C)C [Wang279-1]
IC50 [5]: 102 µM
CC50 [3]: 786 µM
DNA replication IC60 ([6]; ICX: concentration with 60% inhibition of HBV-DNA replication, IC50 not calculable): IC60 = 37 uM
IC50 [4]: 143 µM

CCC(=O)N[C@H](c1nc(-c2nc(C(=O)OC)c(C)o2)cs1)C(C)C [Yao 351.42]
TC50 [1]: 577.35 µg/mL (≈ 1640 µM)
IC50 [2]: 259 µg/mL (≈ 736 µM)

COC(=O)c1nc(-c2csc([C@@H](NC(=O)c3cccc(F)c3)C(C)C)n2)oc1C [Wang417.46-P]
TC50 [1]: 422.43 µg/mL (≈ 1010 µM)
IC50 [2]: 0.9 µg/mL (≈ 2.16 µM)
IC50 [7]: 107 µg/mL (≈ 255 µM)
TC50 [8]: 198.43 µg/mL (≈ 475 µM)

CCOC(=O)c1nc(-c2cccs2)[nH]c1-c1ccccc1 [Wang298]
IC50 [5]: 209 µM
CC50 [3]: 569 µM
IC50 [4]: 144 µM

COC(=O)c1coc([C@H](C)NC(=O)c2nc(-c3csc([C@@H](NC(=O)C4CCCCC4)C(C)C)n3)oc2C)n1 [Wang 543.64-1]
TC50 [1]: 144.34 µg/mL (≈ 266 µM)
IC50 [2]: 57.8 µg/mL (≈ 106 µM)

Nc1nc2c(ncn2COCCO)c(=O)[nH]1 [ACV (acyclovir), acyclovir, reference compound]
TC50 [8]: >1000 µg/mL

Clc1nc(-c2cccs2)[nH]c1-c1ccccc1 [Wang260]
IC50 [5]: 130 µM
CC50 [3]: 270 µM
DNA replication IC85 ([6]; ICX: concentration with 85% inhibition of HBV-DNA replication, IC50 not calculable): IC85 = 37 uM
IC50 [4]: 71.4 µM

CCCc1[nH]c(-c2nccs2)nc1C(=O)OCC [Wang265]
IC50 [5]: 38.8 µM
CC50 [3]: 548 µM
DNA replication IC44 ([6]; ICX: concentration with 44% inhibition of HBV-DNA replication, IC50 not calculable): IC44 = 4.1 uM
IC50 [4]: 131 µM

COC(=O)c1nc(-c2csc([C@@H](NC(=O)C3CCCC3)C(C)C)n2)oc1C [Wang391.49-1]
TC50 [1]: 250 µg/mL (≈ 639 µM)
IC50 [2]: 0.56 µg/mL (≈ 1.43 µM)

COC(=O)c1nc(-c2ncco2)sc1-c1ccc(F)cc1Cl [Wang338]
IC50 [5]: 22.3 µM
CC50 [3]: 200 µM
IC50 ([6]; Hepatitis B virus): 6.1 µM
IC50 [4]: 77.6 µM

CCCCc1sc(-c2nccs2)nc1C(=O)O [Wang268]
IC50 [5]: 128 µM
DNA replication IC53 ([6]; ICX: concentration with 53% inhibition of HBV-DNA replication, IC50 not calculable): IC53 = 125 uM
IC50 [4]: 37.2 µM
